# Results reported in the kinase profiling compilation of Christmann-Franck et al. (2016).
# Columns and labels:
# Test in all cases: radiometric filter-binding kinase assay, Kinase HotSpot
# Conditions in all cases: compound 0.5 µM; ATP 10 µM
# ABL1 (human) = ABL1 (human) (UniProt P00519)
# AURKA (human) = AURKA (human) (UniProt O14965)
# BLK (human) = BLK (human) (UniProt P51451)
# BRSK2 (human) = BRSK2 (human) (UniProt Q8IWQ3)
# CAMK2B (human) = CAMK2B (human) (UniProt Q13554)
# CDK2 CCNA2 (human) = CDK2 CCNA2 (human) (UniProt P24941+P20248)
# CDK2 CCNE1 (human) = CDK2 CCNE1 (human) (UniProt P24941+P24864)
# CLK1 (human) = CLK1 (human) (UniProt P49759)
# CSNK1G2 (human) = CSNK1G2 (human) (UniProt P78368)
# DAPK3 (human) = DAPK3 (human) (UniProt O43293)
# DCLK2 (human) = DCLK2 (human) (UniProt Q8N568)
# EPHB3 (human) = EPHB3 (human) (UniProt P54753)
# FES (human) = FES (human) (UniProt P07332)
# FYN (human) = FYN (human) (UniProt P06241)
# IGF1R (human) = IGF1R (human) (UniProt P08069)
# LRRK2 (human) = LRRK2 (human) (UniProt Q5S007)
# MAPK10 (human) = MAPK10 (human) (UniProt P53779)
# MAPK13 (human) = MAPK13 (human) (UniProt O15264)
# MAPK9 (human) = MAPK9 (human) (UniProt P45984)
# MAPKAPK3 (human) = MAPKAPK3 (human) (UniProt Q16644)
# MET (human) = MET (human) (UniProt P08581)
# MINK1 (human) = MINK1 (human) (UniProt Q8N4C8)
# NEK2 (human) = NEK2 (human) (UniProt P51955)
# NTRK1 (human) = NTRK1 (human) (UniProt P04629)
# PRKACG (human) = PRKACG (human) (UniProt P22612)
# PRKCB2 (human) = PRKCB2 (human) (UniProt P05771)
# PTK2 (human) = PTK2 (human) (UniProt Q05397)
# RIPK2 (human) = RIPK2 (human) (UniProt O43353)
# ROCK1 (human) = ROCK1 (human) (UniProt Q13464)
# ROS1 (human) = ROS1 (human) (UniProt P08922)
# RPS6KA2 KD1 KD2 (human) = RPS6KA2 KD1 KD2 (human) (UniProt Q15349)
# RPS6KA4 KD2 (human) = RPS6KA4 KD2 (human) (UniProt O75676)
# SRPK3 (human) = SRPK3 (human) (UniProt Q9UPE1)
# STK10 (human) = STK10 (human) (UniProt O94804)
# STK38 (human) = STK38 (human) (UniProt Q15208)
# STK39 (human) = STK39 (human) (UniProt Q9UEW8)
# TBK1 (human) = TBK1 (human) (UniProt Q9UHD2)
# TLK2 (human) = TLK2 (human) (UniProt Q86UE8)
# TSSK1B (human) = TSSK1B (human) (UniProt Q9BXA7)
# TTK (human) = TTK (human) (UniProt P33981)
# TYRO3 (human) = TYRO3 (human) (UniProt Q06418)
# ULK3 (human) = ULK3 (human) (UniProt Q6PHR2)
# ROCK1 (human), sequence (Q13464 whole entry, looked up): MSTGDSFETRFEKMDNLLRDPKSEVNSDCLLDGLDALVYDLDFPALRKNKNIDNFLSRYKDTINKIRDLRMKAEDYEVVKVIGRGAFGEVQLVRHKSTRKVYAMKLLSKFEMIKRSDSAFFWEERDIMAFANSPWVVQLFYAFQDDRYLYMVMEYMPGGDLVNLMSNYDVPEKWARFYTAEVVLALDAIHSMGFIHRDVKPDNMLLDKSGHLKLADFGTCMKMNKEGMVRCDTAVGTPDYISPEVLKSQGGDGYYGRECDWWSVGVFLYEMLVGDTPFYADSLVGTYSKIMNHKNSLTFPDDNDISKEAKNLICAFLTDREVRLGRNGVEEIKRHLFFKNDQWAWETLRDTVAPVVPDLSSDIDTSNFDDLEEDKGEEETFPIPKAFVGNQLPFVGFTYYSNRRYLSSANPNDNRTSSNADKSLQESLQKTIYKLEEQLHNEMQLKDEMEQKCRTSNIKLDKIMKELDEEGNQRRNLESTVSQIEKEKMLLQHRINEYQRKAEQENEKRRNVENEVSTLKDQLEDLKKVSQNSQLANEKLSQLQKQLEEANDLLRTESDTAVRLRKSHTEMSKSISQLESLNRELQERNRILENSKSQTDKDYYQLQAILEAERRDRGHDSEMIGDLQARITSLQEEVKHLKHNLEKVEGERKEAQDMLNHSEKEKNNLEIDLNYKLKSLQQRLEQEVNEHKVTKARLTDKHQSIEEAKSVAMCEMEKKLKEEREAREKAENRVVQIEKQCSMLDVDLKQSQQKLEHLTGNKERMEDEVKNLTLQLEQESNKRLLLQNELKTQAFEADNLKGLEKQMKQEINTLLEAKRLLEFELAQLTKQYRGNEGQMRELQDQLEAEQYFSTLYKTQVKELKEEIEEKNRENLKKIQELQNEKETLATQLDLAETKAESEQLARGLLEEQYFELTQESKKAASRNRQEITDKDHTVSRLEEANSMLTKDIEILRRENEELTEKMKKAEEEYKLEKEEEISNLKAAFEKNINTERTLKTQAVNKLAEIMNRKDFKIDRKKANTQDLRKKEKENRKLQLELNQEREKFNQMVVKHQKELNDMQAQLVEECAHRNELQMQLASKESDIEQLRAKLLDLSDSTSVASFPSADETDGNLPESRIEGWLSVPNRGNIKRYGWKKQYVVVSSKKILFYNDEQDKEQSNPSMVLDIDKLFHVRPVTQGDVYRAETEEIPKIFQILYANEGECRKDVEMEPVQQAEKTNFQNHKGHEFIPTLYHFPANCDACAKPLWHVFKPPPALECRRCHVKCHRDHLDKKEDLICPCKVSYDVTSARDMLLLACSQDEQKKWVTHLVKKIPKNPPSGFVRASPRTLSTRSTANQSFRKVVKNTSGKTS
# CLK1 (human), sequence (P49759 whole entry, looked up): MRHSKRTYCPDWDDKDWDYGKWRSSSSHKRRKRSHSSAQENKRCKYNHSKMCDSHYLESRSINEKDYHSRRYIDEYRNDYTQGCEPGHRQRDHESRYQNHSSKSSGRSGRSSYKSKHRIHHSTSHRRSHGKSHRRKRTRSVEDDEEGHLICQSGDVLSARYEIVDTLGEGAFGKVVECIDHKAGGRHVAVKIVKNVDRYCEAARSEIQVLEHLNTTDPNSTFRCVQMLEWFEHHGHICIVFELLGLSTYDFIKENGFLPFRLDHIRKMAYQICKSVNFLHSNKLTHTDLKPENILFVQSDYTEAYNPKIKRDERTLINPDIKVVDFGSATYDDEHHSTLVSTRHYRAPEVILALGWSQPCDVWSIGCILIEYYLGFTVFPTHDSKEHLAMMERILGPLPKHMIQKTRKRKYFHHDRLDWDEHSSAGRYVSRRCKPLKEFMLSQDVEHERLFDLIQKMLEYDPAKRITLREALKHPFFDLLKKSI
# TYRO3 (human), sequence (Q06418 whole entry, looked up): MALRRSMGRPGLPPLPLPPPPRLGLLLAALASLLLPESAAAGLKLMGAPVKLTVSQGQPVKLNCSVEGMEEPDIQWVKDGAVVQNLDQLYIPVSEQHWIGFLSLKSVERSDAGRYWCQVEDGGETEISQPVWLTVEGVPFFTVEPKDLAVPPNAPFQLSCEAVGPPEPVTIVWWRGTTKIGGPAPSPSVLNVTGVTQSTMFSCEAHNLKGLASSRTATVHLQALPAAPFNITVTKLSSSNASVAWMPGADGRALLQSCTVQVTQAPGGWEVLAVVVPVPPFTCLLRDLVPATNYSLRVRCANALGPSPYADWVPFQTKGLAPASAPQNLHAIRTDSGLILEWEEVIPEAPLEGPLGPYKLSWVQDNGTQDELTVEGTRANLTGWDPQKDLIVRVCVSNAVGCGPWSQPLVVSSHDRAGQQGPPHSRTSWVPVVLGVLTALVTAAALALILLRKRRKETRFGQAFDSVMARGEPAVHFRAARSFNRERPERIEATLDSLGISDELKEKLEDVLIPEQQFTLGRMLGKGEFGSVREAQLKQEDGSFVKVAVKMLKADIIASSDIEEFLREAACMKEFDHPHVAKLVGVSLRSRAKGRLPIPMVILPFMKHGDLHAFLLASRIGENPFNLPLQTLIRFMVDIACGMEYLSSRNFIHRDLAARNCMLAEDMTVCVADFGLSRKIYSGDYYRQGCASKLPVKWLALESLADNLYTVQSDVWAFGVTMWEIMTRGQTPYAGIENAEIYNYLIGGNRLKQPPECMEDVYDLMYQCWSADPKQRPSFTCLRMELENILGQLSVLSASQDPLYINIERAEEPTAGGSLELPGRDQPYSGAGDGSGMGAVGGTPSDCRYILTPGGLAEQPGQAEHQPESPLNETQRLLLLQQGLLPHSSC
# STK38 (human), sequence (Q15208 whole entry, looked up): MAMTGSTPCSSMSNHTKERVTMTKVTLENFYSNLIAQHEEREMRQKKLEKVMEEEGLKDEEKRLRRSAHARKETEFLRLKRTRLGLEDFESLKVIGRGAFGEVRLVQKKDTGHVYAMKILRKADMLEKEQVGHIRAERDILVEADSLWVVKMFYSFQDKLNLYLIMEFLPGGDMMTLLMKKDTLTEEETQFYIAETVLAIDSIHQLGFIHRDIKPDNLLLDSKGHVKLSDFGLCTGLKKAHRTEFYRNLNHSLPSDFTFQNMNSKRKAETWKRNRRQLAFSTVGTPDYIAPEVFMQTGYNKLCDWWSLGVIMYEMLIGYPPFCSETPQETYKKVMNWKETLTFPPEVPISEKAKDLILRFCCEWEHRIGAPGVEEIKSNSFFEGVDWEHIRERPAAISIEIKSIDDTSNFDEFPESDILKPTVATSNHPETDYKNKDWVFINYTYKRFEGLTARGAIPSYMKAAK
# IGF1R (human), sequence (P08069 whole entry, looked up): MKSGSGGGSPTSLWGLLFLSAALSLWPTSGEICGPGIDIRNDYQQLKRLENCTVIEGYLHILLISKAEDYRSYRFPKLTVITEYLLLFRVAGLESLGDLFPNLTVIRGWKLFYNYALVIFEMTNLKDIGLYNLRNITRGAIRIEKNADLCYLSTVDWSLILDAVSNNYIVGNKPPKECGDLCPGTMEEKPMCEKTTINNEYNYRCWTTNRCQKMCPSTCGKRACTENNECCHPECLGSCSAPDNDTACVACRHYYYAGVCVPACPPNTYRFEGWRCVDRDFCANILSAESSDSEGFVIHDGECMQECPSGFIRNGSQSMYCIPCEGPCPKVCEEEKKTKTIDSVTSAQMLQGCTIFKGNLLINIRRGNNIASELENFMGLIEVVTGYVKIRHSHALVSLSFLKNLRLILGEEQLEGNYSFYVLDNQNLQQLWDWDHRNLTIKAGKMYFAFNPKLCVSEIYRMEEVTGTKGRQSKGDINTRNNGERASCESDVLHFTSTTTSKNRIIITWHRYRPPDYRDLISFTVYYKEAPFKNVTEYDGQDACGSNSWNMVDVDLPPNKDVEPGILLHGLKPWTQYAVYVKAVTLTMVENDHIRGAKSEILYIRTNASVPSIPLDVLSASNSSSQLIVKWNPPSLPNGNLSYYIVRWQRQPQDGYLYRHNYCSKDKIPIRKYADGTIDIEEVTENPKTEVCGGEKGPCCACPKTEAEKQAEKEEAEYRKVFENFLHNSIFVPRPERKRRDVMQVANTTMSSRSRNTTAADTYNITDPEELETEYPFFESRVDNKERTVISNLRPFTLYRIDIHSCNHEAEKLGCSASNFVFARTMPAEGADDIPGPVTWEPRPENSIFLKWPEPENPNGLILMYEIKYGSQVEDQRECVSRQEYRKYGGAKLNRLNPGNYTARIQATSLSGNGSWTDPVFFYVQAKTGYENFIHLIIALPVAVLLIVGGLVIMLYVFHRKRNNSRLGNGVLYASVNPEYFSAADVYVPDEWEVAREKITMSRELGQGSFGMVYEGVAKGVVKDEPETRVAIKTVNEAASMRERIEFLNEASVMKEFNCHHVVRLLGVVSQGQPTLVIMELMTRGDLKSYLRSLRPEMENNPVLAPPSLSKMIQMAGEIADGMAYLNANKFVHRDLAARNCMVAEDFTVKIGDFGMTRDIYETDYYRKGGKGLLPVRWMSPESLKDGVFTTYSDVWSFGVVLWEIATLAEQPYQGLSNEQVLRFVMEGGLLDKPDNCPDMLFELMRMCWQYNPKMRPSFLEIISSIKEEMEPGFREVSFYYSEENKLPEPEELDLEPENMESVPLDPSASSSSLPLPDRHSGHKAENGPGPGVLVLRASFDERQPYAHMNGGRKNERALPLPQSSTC
# FYN (human), sequence (P06241 whole entry, looked up): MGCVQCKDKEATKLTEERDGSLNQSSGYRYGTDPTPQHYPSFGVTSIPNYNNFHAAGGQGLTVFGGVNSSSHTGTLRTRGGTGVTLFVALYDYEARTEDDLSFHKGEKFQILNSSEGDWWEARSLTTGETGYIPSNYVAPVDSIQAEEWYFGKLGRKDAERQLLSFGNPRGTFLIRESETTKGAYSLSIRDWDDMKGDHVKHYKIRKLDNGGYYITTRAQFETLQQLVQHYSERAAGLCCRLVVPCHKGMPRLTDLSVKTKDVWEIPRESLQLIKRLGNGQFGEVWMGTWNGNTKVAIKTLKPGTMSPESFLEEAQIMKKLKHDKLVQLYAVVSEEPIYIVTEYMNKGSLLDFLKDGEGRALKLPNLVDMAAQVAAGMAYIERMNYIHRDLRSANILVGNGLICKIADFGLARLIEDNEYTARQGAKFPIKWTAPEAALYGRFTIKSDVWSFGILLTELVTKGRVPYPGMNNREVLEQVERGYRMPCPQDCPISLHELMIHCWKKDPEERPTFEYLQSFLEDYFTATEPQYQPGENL
smiles,measurement,setting,value
O=C1NC(=O)/C(=C/c2ccc3c(c2)OC(F)(F)O3)S1,residual activity,ABL1 (human),98.5%
same,residual activity,AURKA (human),92.4%
same,residual activity,BLK (human),99.2%
same,residual activity,BRSK2 (human),90.9%
same,residual activity,CAMK2B (human),99.8%
same,residual activity,CDK2 CCNA2 (human),107%
same,residual activity,CDK2 CCNE1 (human),89.9%
same,residual activity,CLK1 (human),102%
same,residual activity,CSNK1G2 (human),84.5%
same,residual activity,DAPK3 (human),104%
same,residual activity,DCLK2 (human),99.7%
same,residual activity,EPHB3 (human),93.1%
same,residual activity,FES (human),98.3%
same,residual activity,FYN (human),96%
same,residual activity,IGF1R (human),101%
same,residual activity,LRRK2 (human),103%
same,residual activity,MAPK10 (human),102%
same,residual activity,MAPK13 (human),101%
same,residual activity,MAPK9 (human),90.9%
same,residual activity,MAPKAPK3 (human),94.2%
same,residual activity,MET (human),96.2%
same,residual activity,MINK1 (human),90.1%
same,residual activity,NEK2 (human),98.9%
same,residual activity,NTRK1 (human),92.5%
same,residual activity,PRKACG (human),102%
same,residual activity,PRKCB2 (human),97.6%
same,residual activity,PTK2 (human),94.9%
same,residual activity,RIPK2 (human),88.2%
same,residual activity,ROCK1 (human),93.7%
same,residual activity,ROS1 (human),88.5%
same,residual activity,RPS6KA2 KD1 KD2 (human),97.3%
same,residual activity,RPS6KA4 KD2 (human),108%
same,residual activity,SRPK3 (human),95.4%
same,residual activity,STK10 (human),98.6%
same,residual activity,STK38 (human),107%
same,residual activity,STK39 (human),110%
same,residual activity,TBK1 (human),93.3%
same,residual activity,TLK2 (human),104%
same,residual activity,TSSK1B (human),93.3%
same,residual activity,TTK (human),102%
same,residual activity,TYRO3 (human),99.6%
same,residual activity,ULK3 (human),109%
N#CC(C#N)=C(N)/C(C#N)=C/c1ccc(O)cc1,residual activity,ABL1 (human),103%
same,residual activity,AURKA (human),89.6%
same,residual activity,BLK (human),101%
same,residual activity,BRSK2 (human),101%
same,residual activity,CAMK2B (human),93.3%
same,residual activity,CDK2 CCNA2 (human),97.9%
same,residual activity,CDK2 CCNE1 (human),97%
same,residual activity,CLK1 (human),96.5%
same,residual activity,CSNK1G2 (human),104%
same,residual activity,DAPK3 (human),91.1%
same,residual activity,DCLK2 (human),101%
same,residual activity,EPHB3 (human),99.5%
same,residual activity,FES (human),101%
same,residual activity,FYN (human),98.4%
same,residual activity,IGF1R (human),90.6%
same,residual activity,LRRK2 (human),97.1%
same,residual activity,MAPK10 (human),98.8%
same,residual activity,MAPK13 (human),103%
same,residual activity,MAPK9 (human),105%
same,residual activity,MAPKAPK3 (human),99.9%
same,residual activity,MET (human),117%
same,residual activity,MINK1 (human),97.7%
same,residual activity,NEK2 (human),102%
same,residual activity,NTRK1 (human),102%
same,residual activity,PRKACG (human),96.8%
same,residual activity,PRKCB2 (human),111%
same,residual activity,PTK2 (human),98.5%
same,residual activity,RIPK2 (human),95.5%
same,residual activity,ROCK1 (human),100%
same,residual activity,ROS1 (human),97.1%
same,residual activity,RPS6KA2 KD1 KD2 (human),96.2%
same,residual activity,RPS6KA4 KD2 (human),99.7%
same,residual activity,SRPK3 (human),96.4%
same,residual activity,STK10 (human),92.4%
same,residual activity,STK38 (human),96.9%
same,residual activity,STK39 (human),90.3%
same,residual activity,TBK1 (human),91.1%
same,residual activity,TLK2 (human),89.4%
same,residual activity,TSSK1B (human),111%
same,residual activity,TTK (human),94.4%
same,residual activity,TYRO3 (human),99.3%
same,residual activity,ULK3 (human),67.8%
CCC(=O)Nc1ccc2ncnc(Nc3cccc(Br)c3)c2c1,residual activity,ABL1 (human),98.9%
same,residual activity,AURKA (human),97.4%
same,residual activity,BLK (human),90.7%
same,residual activity,BRSK2 (human),94.3%
same,residual activity,CAMK2B (human),105%
same,residual activity,CDK2 CCNA2 (human),95.1%
same,residual activity,CDK2 CCNE1 (human),84.9%
same,residual activity,CLK1 (human),84.5%
same,residual activity,CSNK1G2 (human),98.1%
same,residual activity,DAPK3 (human),104%
same,residual activity,DCLK2 (human),89%
same,residual activity,EPHB3 (human),89.4%
same,residual activity,FES (human),102%
same,residual activity,FYN (human),107%
same,residual activity,IGF1R (human),87.6%
same,residual activity,LRRK2 (human),92.4%
same,residual activity,MAPK10 (human),96.5%
same,residual activity,MAPK13 (human),106%
same,residual activity,MAPK9 (human),78.3%
same,residual activity,MAPKAPK3 (human),90.2%
same,residual activity,MET (human),103%
same,residual activity,MINK1 (human),95.8%
same,residual activity,NEK2 (human),87.5%
same,residual activity,NTRK1 (human),95.8%
same,residual activity,PRKACG (human),95.5%
same,residual activity,PRKCB2 (human),101%
same,residual activity,PTK2 (human),99.4%
same,residual activity,RIPK2 (human),71.4%
same,residual activity,ROCK1 (human),99.5%
same,residual activity,ROS1 (human),97.5%
same,residual activity,RPS6KA2 KD1 KD2 (human),87.2%
same,residual activity,RPS6KA4 KD2 (human),106%
same,residual activity,SRPK3 (human),97%
same,residual activity,STK10 (human),68.7%
same,residual activity,STK38 (human),100%
same,residual activity,STK39 (human),96.1%
same,residual activity,TBK1 (human),95.6%
same,residual activity,TLK2 (human),104%
same,residual activity,TSSK1B (human),73.2%
same,residual activity,TTK (human),113%
same,residual activity,TYRO3 (human),101%
same,residual activity,ULK3 (human),97.5%
c1ccc(-c2n[nH]cc2-c2ccnc3ccccc23)nc1,residual activity,ABL1 (human),77.1%
same,residual activity,AURKA (human),95.4%
same,residual activity,BLK (human),99.9%
same,residual activity,BRSK2 (human),101%
same,residual activity,CAMK2B (human),97.2%
same,residual activity,CDK2 CCNA2 (human),98.7%
same,residual activity,CDK2 CCNE1 (human),91.3%
same,residual activity,CLK1 (human),106%
same,residual activity,CSNK1G2 (human),103%
same,residual activity,DAPK3 (human),101%
same,residual activity,DCLK2 (human),97.4%
same,residual activity,EPHB3 (human),97.1%
same,residual activity,FES (human),111%
same,residual activity,FYN (human),110%
same,residual activity,IGF1R (human),102%
same,residual activity,LRRK2 (human),93.7%
same,residual activity,MAPK10 (human),92.9%
same,residual activity,MAPK13 (human),110%
same,residual activity,MAPK9 (human),98.9%
same,residual activity,MAPKAPK3 (human),92.9%
same,residual activity,MET (human),94.1%
same,residual activity,MINK1 (human),84.1%
same,residual activity,NEK2 (human),97%
same,residual activity,NTRK1 (human),102%
same,residual activity,PRKACG (human),92.9%
same,residual activity,PRKCB2 (human),92.1%
same,residual activity,PTK2 (human),99.3%
same,residual activity,RIPK2 (human),64.7%
same,residual activity,ROCK1 (human),103%
same,residual activity,ROS1 (human),102%
same,residual activity,RPS6KA2 KD1 KD2 (human),96.3%
same,residual activity,RPS6KA4 KD2 (human),87.2%
same,residual activity,SRPK3 (human),88.9%
same,residual activity,STK10 (human),90.1%
same,residual activity,STK38 (human),111%
same,residual activity,STK39 (human),88.7%
same,residual activity,TBK1 (human),92.6%
same,residual activity,TLK2 (human),98.6%
same,residual activity,TSSK1B (human),104%
same,residual activity,TTK (human),97.4%
same,residual activity,TYRO3 (human),124%
same,residual activity,ULK3 (human),85.3%
